# Measured values published in patent US20250025553A1, “COMBINATION THERAPY FOR CANCER” (Medannex Ltd., priority 2021, published 2025).
# “Also recorded” adds a separate entry of the source. Where two headings read alike, the source gives them in different places.
# B1: MDX-001: murine anti-ANXA1 antibody, parent of MDX-124; light and heavy chains of SEQ ID NOs: 30 and 31 (antibody, listed as Mus musculus)
# heavy: QVQLQQSGPELVRPGTSVKMSCKASGYTFTNYWIGWAKQRPGHGLEWIGDIYPGGDYTNYNEKFKGKATLTADKSSSTAYMQFSSLTSEDSAIYYCARWGLGYYFDYWGQGITLTVSSAKTTPPSVYPLAPGCGDTTGSSVTLGCLVKGYFPESVTVTWNSGSLSSSVHTFPALLQSGLYTMSSSVTVPSSTWPSQTVTCSVAHPASSTTVDKKLEPSGPISTINPCPPCKECHKCPAPNLEGGPSVFIFPPNIKDVLMISLTPKVTCVVVDVSEDDPDVQISWFVNNVEVHTAQTQTHREDYNSTIRVVSTLPIQHQDWMSGKEFKCKVNNKDLPSPIERTISKIKGLVRAPQVYILPPPAEQLSRKDVSLTCLVVGFNPGDISVEWTSNGHTEENYKDTAPVLDSDGSYFIYSKLNMKTSKWEKTDSFSCNVRHEGLKNYYLKKTISRSPGK
# light: DAVMTQTPLSLPVSLGDQVSISCRSSQSLENSNGKTYLNWYLQKPGQSPQLLIYGVSNRFSGVLDRFSGSGSGTDFTLKISRVEAEDLGVYFCLQVTHVPYTFGGGTKLEIKRADAAPTVSIFPPSSEQLTSGGASVVCFLNNFYPKDINVKWKIDGSERQNGVLNSWTDQDSKDSTYSMSSTLTLTKDEYERHNSYTCEATHKTSTSPIVKSFNRNEC
# Legend:
# [1] = system: MIA PaCa-2 pancreatic cancer cell line; assay: MTT cell proliferation assay, MIA PaCa-2; type: cell-based, human
# Protocol: (§1) The cell lines were obtained from Public Health England Culture Collections. MIA-PaCa-2 is a human pancreatic carcinoma cell line; PANC-1 is a human pancreatic epithelioid carcinoma cell line.
# (§2) Assays were performed in triplicate.
# (§3) Cells were then cultured for 24 hr prior to assay, then cell proliferation was measured.
# (§4) With both cell lines 5FU was used at its IC50. The IC50 concentration represents the concentration at which a substance exerts half of its maximal inhibitory effect. The IC50 for each cell line was calculated by treating with a series of 10-fold dilutions of 5FU ranging from 1 nM to 10 mM. The MTT assay was used to calculate cancer cell viability after 72 hr incubation with 5FU at each concentration.
# [2] = system: PANC-1 pancreatic cancer cell line; assay: MTT cell proliferation assay, PANC-1; type: cell-based, human; settings: for IC50: Homo sapiens, PANC-1, MTT
# Protocol: as §1, §2, §3, §4
# [3] = system: Human multiple myeloma cell lines (H929, JJN3 and U266); assay: Apoptosis assay (Annexin V and 7-AAD labelling, flow cytometry); type: cell-based; settings: MDX-124 20 μM, bortezomib 20 nM or both (1000:1), 48 h
# Protocol: The effect of MDX-124, bortezomib and the combination of both agents on apoptosis was assessed using Annexin V and 7-AAD labelling. Human multiple myeloma cell lines (H929, JJN3 and U266, all from DSMZ, Leibniz Institute, German Collection of Microorganisms and Cell Cultures, GmbH, Germany) were incubated with either MDX-124 (20 μM), bortezomib (20 nM, Cell Signaling Technology, MA, USA) or the combination of both agents (fixed molar ratio of 1000:1) in 1 mL of RPMI media supplemented with 10% FCS for 48 h. The percentage of apoptosis above untreated control cell levels was quantified using flow cytometry for each respective treatment group.
# p-BCL2 (pS70) = assay: Expression of apoptosis related protein p-BCL2 (flow cytometry); type: cell-based, human; settings: MDX-124 20 μM, bortezomib 20 nM or both, 4 h; multiple myeloma cell lines
# Protocol: (§5) The effects of MDX-124, bortezomib and the combination of both agents on the expression of 2 apoptosis related proteins, p-BCL2 and p-STAT3, was assessed using flow cytometry. Aliquots of each human multiple myeloma cell line were treated with either MDX-124 (20 μM), bortezomib (20 nM) or a combination of MDX-124 and bortezomib for 4 h prior to staining with an Alexa488-labelled p-STAT3 (Tyr705, from BD Biosciences, catalogue #557814) antibody and a PE-labelled p-BCL2 ([…], BD Biosciences, catalogue #562532) antibody. Mean fluorescence intensity values for each treatment group were compared with untreated control cells.
# p-STAT3 (Tyr705) = assay: Expression of apoptosis related protein p-STAT3 (flow cytometry); type: cell-based, human; settings: MDX-124 20 μM, bortezomib 20 nM or both, 4 h; multiple myeloma cell lines
# Protocol: as §5
# interleukin-6 (IL-6) = assay: Intracellular IL-6 expression (flow cytometry); type: cell-based, human; settings: MDX-124 20 μM, bortezomib 20 nM or both, 24h; multiple myeloma cell lines
# Protocol: The effects of each agent, both alone and in combination, on the expression of interleukin-6 (IL-6) were assessed using flow cytometry. […] Mean fluorescence intensity values for IL-6 for each respective treatment group were compared with untreated control cells.
# [4] = system: triple-negative breast cancer cell line HCC1806; assay: MTT cell proliferation assay, HCC1806
# LL/2 lung cancer cells = assay: LL/2 murine model of lung cancer; type: in vivo, C57BL/6 mice; settings: LL/2, MDX-124 10 mg/kg weekly, anti-PD-1 10 mg/kg twice weekly; two-way repeated measures ANOVA/mixed-effects model
# Protocol: Drugs were administered as described above. Tumour volume was measured at days 2, 5, 8, 12 and 15, at which point the vehicle and monotherapy groups were terminated. The combination therapy group was measured again at day 19 and then terminated.
# Results were analysed using a two-way repeated measures ANOVA/mixed-effects model. […] No body weight loss was detected in this study.
# [5] = system: EMT6 triple-negative breast cancer cells; assay: EMT6 mouse model of breast cancer; type: in vivo, BALB/c mice
# Protocol: Nine-week-old female BALB/c mice were inoculated subcutaneously with 5×10^5 EMT6 triple-negative breast cancer cells. […] Tumour volume was measured twice weekly for 3 weeks. The anti-PD-1 antibody used is the mouse antibody RMP-1-14 (Yamazaki et al., Journal of Immunology 175(3): 1586-1592, 2005); PBS was administered by intraperitoneal injection; antibodies were administered by intravenous injection.
molecule,measurement,setting,value
"O=c1[nH]cc(F)c(=O)[nH]1 [5FU, 5-fluorouracil, reference compound]",IC50,"[1]; Homo sapiens, MIA PaCa-2, MTT, 72 hr incubation, repeated 8 times, read-out: IC50 of 5FU (concentration at which 50% of cells were not viable)",100 µM
same,IC50,"[2]; 72 hr incubation, repeated 8 times, read-out: IC50 of 5FU (concentration at which 50% of cells were not viable)",1000 µM
"CC(C)C[C@H](NC(=O)[C@H](Cc1ccccc1)NC(=O)c1cnccn1)B(O)O [bortezomib, reference compound]",apoptosis (percentage above untreated control cell levels),[3],significantly induced apoptosis
same,expression of p-BCL2 (mean fluorescence intensity vs untreated control cells),p-BCL2 (pS70),reduced the expression
same,expression of p-STAT3 (mean fluorescence intensity vs untreated control cells),p-STAT3 (Tyr705),reduced the expression
same,intracellular IL-6 expression (mean fluorescence intensity vs untreated control cells),interleukin-6 (IL-6),modestly reduced
"N.N.[Cl][Pt][Cl] [cisplatin, reference compound]",IC50,"[4]; read-out: IC50 of cisplatin (concentration at which 50% of cells were not viable), HCC1806, MTT, repeated four times",0.65 µM
"Nc1ccn([C@@H]2O[C@H](CO)[C@@H](O)C2(F)F)c(=O)n1 [gemcitabine, reference compound]",IC50,"[2]; repeated three times, read-out: IC50 of gemcitabine (concentration at which 50% of cells were not viable)",20 µM
"CC(=O)O[C@H]1C(=O)[C@@]2(C)[C@H]([C@H](OC(=O)c3ccccc3)[C@]3(O)C[C@H](OC(=O)[C@H](O)[C@@H](NC(=O)c4ccccc4)c4ccccc4)C(C)=C1C3(C)C)[C@]1(OC(C)=O)CO[C@@H]1C[C@@H]2O [paclitaxel, reference compound]",IC20,"[4]; Homo sapiens, HCC1806, read-out: IC20 of paclitaxel (concentration at which 20% of cells were not viable)",0.0004 µM
MDX-124: humanised IgG1 antibody against ANXA1 with a light chain of SEQ ID NO: 13 and a heavy chain of SEQ ID NO: 14,"anti-proliferative effect, single agent","[1]; MIA PaCa-2, MDX-124 alone 2.5-10 μM, 72 hours, vs IgG isotype control",significantly reduces cancer cell proliferation; also recorded: relatively potent anti-proliferative effect
same,"anti-proliferative effect, single agent","[2]; PANC-1, MDX-124 alone 2.5-10 μM, 72 hours, vs IgG isotype control",significantly reduces cancer cell proliferation; also recorded: relatively potent anti-proliferative effect
same,tumour growth compared to vehicle (and monotherapies),LL/2 lung cancer cells,No significant differences
same,apoptosis (percentage above untreated control cell levels),[3],had an impact on apoptosis
same,expression of p-BCL2 (mean fluorescence intensity vs untreated control cells),p-BCL2 (pS70),reduced the expression
same,expression of p-STAT3 (mean fluorescence intensity vs untreated control cells),p-STAT3 (Tyr705),reduced the expression
same,intracellular IL-6 expression (mean fluorescence intensity vs untreated control cells),interleukin-6 (IL-6),modestly reduced
same,"anti-proliferative effect, single agent","[4]; HCC1806, MDX-124 alone 2.5-10 μM, vs IgG isotype control",significantly reduces cancer cell proliferation; also recorded: anti-proliferative effect
B1,tumour growth compared to the vehicle control,"[5]; EMT6, MDX-001 10 mg/kg weekly, anti-PD-1 10 mg/kg twice weekly, i.v., 3 weeks",did not significantly affect tumour growth
same,adverse effects,[5]; EMT6 model,no adverse effects
same,tumour growth compared to vehicle (and monotherapies),LL/2 lung cancer cells,neither MDX-001 nor the anti-PD-1 antibodies displayed efficacy
